In patent US8106055B2, “Substituted amide compounds” (Gruenenthal GmbH, priority 2007, dated 2012) one finds inhibition data, which are given here for 21 compounds.

Experiment [1] concerns the target T1, human bradykinin 1 receptor (B1R) (Homo sapiens, UniProt P46663).
T1 construct: expressed in transfected cells; host or cells: CHO K1 cells
T1 sequence (P46663 1-353): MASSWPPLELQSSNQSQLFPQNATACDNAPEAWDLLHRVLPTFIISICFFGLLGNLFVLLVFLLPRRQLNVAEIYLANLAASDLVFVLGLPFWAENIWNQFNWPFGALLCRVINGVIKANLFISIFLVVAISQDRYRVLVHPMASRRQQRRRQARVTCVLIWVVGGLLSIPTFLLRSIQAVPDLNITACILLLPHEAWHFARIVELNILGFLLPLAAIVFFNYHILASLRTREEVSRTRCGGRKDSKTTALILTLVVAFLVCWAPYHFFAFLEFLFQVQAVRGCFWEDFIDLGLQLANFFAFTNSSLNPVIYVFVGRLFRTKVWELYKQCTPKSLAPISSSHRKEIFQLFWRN
The experiment in a line: Functional investigation on the human bradykinin 1 receptor (B1R), Ca2+ FLIPR assay in CHO K1 hB1R cells. It counts as cell-based. To be noted: CHO-K1, B1R antagonism human; test substance 10 μM; Ca2+ FLIPR, CHO K1 hB1R cells; read-out: B1R Ant. h [10 μM] % Inhibition. An outline of the steps: (§1)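 Fluo-4 Ca2+ readout, peak fluorescence. Stable CHO K1 transfectants; compound pre-incubated 10-20 min, then EC80 agonist—Lys-Des-Arg9-BK for hB1R, Des-Arg9-BK for rB1R. % inhibition vs maximal inhibition; IC50 from multiple concentrations, duplicate/triplicate, ≥2 independent runs.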

For experiment [2], the target named is T2, bradykinin 1 receptor (B1R) of the rat (Rattus norvegicus, UniProt P97583).
T2 construct: expressed in transfected cells; host or cells: CHO K1 cells
T2 sequence (P97583 1-337): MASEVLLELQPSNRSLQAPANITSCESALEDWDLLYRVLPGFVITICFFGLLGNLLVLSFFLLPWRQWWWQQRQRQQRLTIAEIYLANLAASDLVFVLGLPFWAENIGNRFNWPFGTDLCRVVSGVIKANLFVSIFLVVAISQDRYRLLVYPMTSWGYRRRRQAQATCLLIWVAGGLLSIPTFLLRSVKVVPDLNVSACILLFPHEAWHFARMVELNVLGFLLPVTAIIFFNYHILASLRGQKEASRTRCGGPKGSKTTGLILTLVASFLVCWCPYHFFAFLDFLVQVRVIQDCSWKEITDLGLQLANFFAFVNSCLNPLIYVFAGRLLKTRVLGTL
The experiment in a line: Functional investigation on the rat bradykinin 1 receptor (B1R), Ca2+ FLIPR assay in CHO K1 rB1R cells. It counts as cell-based. The conditions noted are these: CHO-K1, B1R antagonism rat; test substance 10 μM; Ca2+ FLIPR, CHO K1 rB1R cells; read-out: B1R Ant. r [10 μM] % Inhibition. An outline of the steps: as §1

As to `CN(C)C(c1cccs1)C1CCC(CCNC(=O)COCCN(C)S(=O)(=O)c2ccc(Cl)cc2Cl)CC1` (stereo not drawn) [Example 9, 2-(2-(2,4-dichloro-N-methylphenylsulfonamido)ethoxy)-N-(2-(4-((dimethylamino) (thiophen-2-yl)methyl)cyclohexyl)ethyl)acetamide], the inhibition at 10 µM in experiment [1] turned out to be 97%; in experiment [2] it was 43%.
The like results for `CN(C)C(c1cccs1)C1CCC(NC(=O)COCCN(C)S(=O)(=O)c2ccc(F)cc2)CC1` (stereo not drawn) [Example 10, N-(4-((dimethylamino)(thiophen-2-yl)methyl)cyclohexyl)-2-(2-(4-fluoro-N-methylphenylsulfonamido)ethoxy)acetamide] were, in that order, -17% and 9%.
`CN(C)C(c1cccs1)C1CCC(NC(=O)COC2CCN(S(=O)(=O)c3cccc(C(F)(F)F)c3)C2)CC1` (stereo not drawn) [Example 11, N-(4-((dimethylamino)(thiophen-2-yl)methyl)cyclohexyl)-2-(1-(3-(trifluoromethyl)phenylsulfonyl)pyrrolidin-3-yloxy)acetamide]: the values for the inhibition at 10 µM in experiment [1] and in experiment [2] were -16% and 36%, respectively.
The like results for `Cc1cc(C)c(S(=O)(=O)N2CCC(OCC(=O)NC3CCC(C(c4cccs4)N(C)C)CC3)C2)c(C)c1` (stereo not drawn) [Example 12, N-(4-((dimethylamino)(thiophen-2-yl)methyl)cyclohexyl)-2-(1-(mesitylsulfonyl)pyrrolidin-3-yloxy)acetamide] were, in that order, 41% and 30%.
In the case of `CN(C)C(c1ccccc1)C1CCC(CNC(=O)COCCN(C)S(=O)(=O)c2c(Cl)cccc2Cl)CC1` (stereo not drawn) [Example 13, 2-(2-(2,6-dichloro-N-methylphenylsulfonamido)ethoxy)-N-((4-((dimethylamino)(phenyl)methyl)cyclohexyl)methyl)acetamide], the inhibition at 10 µM in experiment [1] amounted to 99%; in experiment [2] it was 44%.
The like results for `CN(C)C(c1ccccc1)C1CCC(CNC(=O)COCCN(C)S(=O)(=O)c2c(Cl)cc(Cl)cc2Cl)CC1` (stereo not drawn) [Example 14, N-((4-((dimethylamino)(phenyl)methyl)cyclohexyl)methyl)-2-(2-(2,4,6-trichloro-N-methylphenylsulfonamido)ethoxy)acetamide] were, in that order, 104% and 40%.
As to `CN(C)C(c1ccccc1)C1CCC(CNC(=O)COCCN(Cc2ccccc2)S(=O)(=O)c2ccccc2)CC1` (stereo not drawn) [Example 15, 2-(2-(N-benzylphenylsulfonamido)ethoxy)-N-((4-((dimethylamino)(phenyl)methyl)cyclohexyl)methyl)acetamide], the inhibition at 10 µM in experiment [1] was 11%; in experiment [2] it was -18%.
The like results for `CCN(CCOCC(=O)NCC1CCC(C(c2cccs2)N(C)C)CC1)S(=O)(=O)c1c(C)cc(OC)c(C)c1C` (stereo not drawn) [Example 16, N-((4-((dimethylamino)(thiophen-2-yl)methyl)cyclohexyl)methyl)-2-(2-(N-ethyl-4-methoxy-2,3,6-trimethylphenylsulfonamido)ethoxy)acetamide] were, in that order, 86% and 59%.
The like results for `CN(C)C(c1ccccc1)C1CCC(CNC(=O)COCC2CCCCN2S(=O)(=O)c2ccc(Cl)c(Cl)c2)CC1` (stereo not drawn) [Example 17, 2-((1-(3,4-dichlorophenylsulfonyl)piperidin-2-yl)methoxy)-N-((4-((dimethylamino)(phenyl)methyl)cyclohexyl)methyl)acetamide] were, in that order, 81% and 22%.
For `CN(C)C(c1ccccc1)C1CCC(CNC(=O)COCC2CCCN2S(=O)(=O)c2ccc(Cl)c(Cl)c2)CC1` (stereo not drawn) [Example 18, 2-((1-(3,4-dichlorophenylsulfonyl)pyrrolidin-2-yl)methoxy)-N-((4-((dimethylamino)(phenyl)methyl)cyclohexyl)methyl)acetamide], the results for the inhibition at 10 µM in experiment [1] and in experiment [2] were 62% and 11%, respectively.
The like results for `COc1ccc(S(=O)(=O)N2Cc3ccccc3CC2COCC(=O)NCC2CCC(C(c3ccccc3)N(C)C)CC2)cc1` (stereo not drawn) [Example 19, N-((4-((dimethylamino)(phenyl)methyl)cyclohexyl)methyl)-2-((2-(4-methoxyphenylsulfonyl)-1,2,3,4-tetrahydroisoquinolin-3-yl)methoxy)acetamide] were, in that order, 63% and 4%.
Take `COc1cc(C)c(S(=O)(=O)N2CCN(CCOCC(=O)NC3CCC(C(c4ccccc4)N(C)C)CC3)CC2)c(C)c1C` (stereo not drawn) [Example 20, N-(4-((dimethylamino)(phenyl)methyl)cyclohexyl)-2-(2-(4-(4-methoxy-2,3,6-trimethylphenylsulfonyl)piperazin-1-yl)ethoxy)acetamide]: the results for the inhibition at 10 µM in experiment [1] and in experiment [2] were 101% and -9%, respectively.
The like results for `CN(C)C(c1cccs1)C1CCC(CCNC(=O)COC2CCN(S(=O)(=O)c3ccc(Cl)cc3Cl)C2)CC1` (stereo not drawn) [Example 21, 2-(1-(2,4-dichlorophenylsulfonyl)pyrrolidin-3-yloxy)-N-(2-(4-((dimethylamino)(thiophen-2-yl)methyl)cyclohexyl)ethyl)acetamide] were, in that order, 88% and 50%.
The like results for `COc1ccc(S(=O)(=O)N2CCC(OCC(=O)NCC3CCC(C(c4ccccc4)N(C)C)CC3)C2)cc1OC` (stereo not drawn) [Example 22, 2-(1-(3,4-dimethoxyphenylsulfonyl)pyrrolidin-3-yloxy)-N-((4-((dimethylamino)(phenyl)methyl)cyclohexyl)methyl)acetamide] were, in that order, 0% and 26%.
On to `COc1ccc(S(=O)(=O)N2CCC(OCC(=O)NCC3CCC(C(c4cccs4)N(C)C)CC3)C2)cc1OC` (stereo not drawn) [Example 23, 2-(1-(3,4-dimethoxyphenylsulfonyl)pyrrolidin-3-yloxy)-N-((4-((dimethylamino)(thiophen-2-yl)methyl)cyclohexyl)methyl)acetamide], for which the inhibition at 10 µM in experiment [1] is -25%; in experiment [2], 7%.
The like results for `CN(C)C(c1cccs1)C1CCC(CNC(=O)COC2CCN(S(=O)(=O)c3cccc(C(F)(F)F)c3)C2)CC1` (stereo not drawn) [Example 25, N-((4-((dimethylamino)(thiophen-2-yl)methyl)cyclohexyl)methyl)-2-(1-(3-(trifluoromethyl)phenylsulfonyl)pyrrolidin-3-yloxy)acetamide] were, in that order, -6% and 30%.
The like results for `Cc1cc(C)c(S(=O)(=O)N2CCC(OCC(=O)NCC3CCC(C(c4ccccc4)N(C)C)CC3)C2)c(C)c1` (stereo not drawn) [Example 26, N-((4-((dimethylamino)(phenyl)methyl)cyclohexyl)methyl)-2-(1-(mesitylsulfonyl)pyrrolidin-3-yloxy)acetamide] were, in that order, 51% and 38%.
The like results for `Cc1cc(C)c(S(=O)(=O)N2CCC(OCC(=O)NCC3CCC(C(c4cccs4)N(C)C)CC3)C2)c(C)c1` (stereo not drawn) [Example 27, N-((4-((dimethylamino)(thiophen-2-yl)methyl)cyclohexyl)methyl)-2-(1-(mesitylsulfonyl)pyrrolidin-3-yloxy)acetamide] were, in that order, 60% and 60%.
Turning to `CN(C)C(c1cccs1)C1CCC(NC(=O)COC2CCN(S(=O)(=O)c3ccc(F)cc3)C2)CC1` (stereo not drawn) [Example 28, N-(4-((dimethylamino)(thiophen-2-yl)methyl)cyclohexyl)-2-(1-(4-fluorophenylsulfonyl)pyrrolidin-3-yloxy)acetamide], the inhibition at 10 µM in experiment [1] is -7%; in experiment [2], 17%.
The like results for `COc1cc(C)c(S(=O)(=O)N2CCCC(OCC(=O)NCC3CCC(C(c4ccccc4)N(C)C)CC3)C2)c(C)c1C` (stereo not drawn) [Example 29, N-((4-((dimethylamino)(phenyl)methyl)cyclohexyl)methyl)-2-(1-(4-methoxy-2,3,6-trimethylphenylsulfonyl)piperidin-3-yloxy)acetamide] were, in that order, 35% and 17%.
As to `COc1ccc(S(=O)(=O)N2CCCCC2COCC(=O)NCCC2CCC(C(c3cccs3)N(C)C)CC2)cc1` (stereo not drawn) [Example 30, N-(2-(4-((dimethylamino)(thiophen-2-yl)methyl)cyclohexyl)ethyl)-2-((1-(4-methoxyphenylsulfonyl)piperidin-2-yl)methoxy)acetamide], the inhibition at 10 µM amounted to 81% in experiment [1] and 72% in experiment [2].
